Experimental data as given in the kinase profiling compilation of Christmann-Franck et al. (2016).

Assays:
Experiment in all cases: KINOMEscan competition binding
Conditions in all cases: compound 10.0 µM
CLK1 (human) = CLK1 (human) (UniProt P49759)
CSNK1E (human) = CSNK1E (human) (UniProt P49674)
IRAK3 (human) = IRAK3 (human) (UniProt Q9Y616)
PKN1 (human) = PKN1 (human) (UniProt Q16512)
FGR (human) = FGR (human) (UniProt P09769)
TSSK1B (human) = TSSK1B (human) (UniProt Q9BXA7)
PTK2 (human) = PTK2 (human) (UniProt Q05397)
CAMK2A (human) = CAMK2A (human) (UniProt Q9UQM7)
MAPK6 (human) = MAPK6 (human) (UniProt Q16659)
MKNK2 (human) = MKNK2 (human) (UniProt Q9HBH9)
MKNK2 (human), sequence (Q9HBH9 whole entry, looked up): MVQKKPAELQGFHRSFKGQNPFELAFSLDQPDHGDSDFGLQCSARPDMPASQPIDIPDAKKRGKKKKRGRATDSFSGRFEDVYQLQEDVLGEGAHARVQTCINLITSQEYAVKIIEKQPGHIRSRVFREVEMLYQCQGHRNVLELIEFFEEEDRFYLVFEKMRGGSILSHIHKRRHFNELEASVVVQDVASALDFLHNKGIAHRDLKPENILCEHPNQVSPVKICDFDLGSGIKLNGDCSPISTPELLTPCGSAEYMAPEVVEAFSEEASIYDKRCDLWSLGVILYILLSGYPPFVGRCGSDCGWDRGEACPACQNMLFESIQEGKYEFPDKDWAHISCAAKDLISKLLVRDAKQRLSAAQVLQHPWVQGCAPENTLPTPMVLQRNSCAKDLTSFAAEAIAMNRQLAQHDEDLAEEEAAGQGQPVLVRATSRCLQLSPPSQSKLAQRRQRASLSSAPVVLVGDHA

BRSK2 (human) = BRSK2 (human) (UniProt Q8IWQ3)
BRSK2 (human), sequence (Q8IWQ3 whole entry, looked up): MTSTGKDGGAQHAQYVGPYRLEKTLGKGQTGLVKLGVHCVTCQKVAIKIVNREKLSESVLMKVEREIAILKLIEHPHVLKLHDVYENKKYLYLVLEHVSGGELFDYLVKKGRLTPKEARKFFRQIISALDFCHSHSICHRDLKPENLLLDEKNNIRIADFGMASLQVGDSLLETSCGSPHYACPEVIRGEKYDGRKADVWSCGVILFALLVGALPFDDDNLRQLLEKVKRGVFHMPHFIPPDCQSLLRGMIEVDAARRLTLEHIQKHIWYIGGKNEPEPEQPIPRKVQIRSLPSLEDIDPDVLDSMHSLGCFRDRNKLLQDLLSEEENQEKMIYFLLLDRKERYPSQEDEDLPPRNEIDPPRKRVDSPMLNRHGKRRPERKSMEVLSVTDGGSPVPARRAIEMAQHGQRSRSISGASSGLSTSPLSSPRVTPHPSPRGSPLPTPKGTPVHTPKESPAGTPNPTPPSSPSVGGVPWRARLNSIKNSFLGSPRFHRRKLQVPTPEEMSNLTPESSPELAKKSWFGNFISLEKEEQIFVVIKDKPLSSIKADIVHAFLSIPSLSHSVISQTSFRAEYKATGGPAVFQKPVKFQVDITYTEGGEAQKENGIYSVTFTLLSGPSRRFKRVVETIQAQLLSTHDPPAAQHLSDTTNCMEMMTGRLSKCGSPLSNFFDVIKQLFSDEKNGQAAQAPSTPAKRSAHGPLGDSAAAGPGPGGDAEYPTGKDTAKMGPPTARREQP

RPS6KA1 KD1 (human) = RPS6KA1 KD1 (human) (UniProt Q15418)
CAMKK1 (human) = CAMKK1 (human) (UniProt Q8N5S9)
CAMKK1 (human), sequence (Q8N5S9 whole entry, looked up): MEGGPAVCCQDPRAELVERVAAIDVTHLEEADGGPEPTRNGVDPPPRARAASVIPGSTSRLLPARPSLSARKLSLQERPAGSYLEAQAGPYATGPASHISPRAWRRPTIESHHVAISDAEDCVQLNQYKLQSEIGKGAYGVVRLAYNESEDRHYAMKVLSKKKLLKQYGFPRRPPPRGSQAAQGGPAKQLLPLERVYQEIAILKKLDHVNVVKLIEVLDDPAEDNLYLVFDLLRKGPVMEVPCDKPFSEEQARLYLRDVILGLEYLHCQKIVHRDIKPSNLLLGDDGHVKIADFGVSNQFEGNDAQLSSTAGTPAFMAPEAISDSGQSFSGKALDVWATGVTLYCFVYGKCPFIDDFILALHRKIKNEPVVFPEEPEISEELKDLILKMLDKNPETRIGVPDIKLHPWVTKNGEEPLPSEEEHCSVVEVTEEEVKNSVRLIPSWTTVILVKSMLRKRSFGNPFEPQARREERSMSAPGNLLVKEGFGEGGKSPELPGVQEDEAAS

TAOK3 (human) = TAOK3 (human) (UniProt Q9H2K8)
CSNK1G1 (human) = CSNK1G1 (human) (UniProt Q9HCP0)
FGFR3 (human) = FGFR3 (human) (UniProt P22607)
MKNK1 (human) = MKNK1 (human) (UniProt Q9BUB5)
CLK3 (human) = CLK3 (human) (UniProt P49761)
MAP3K9 (human) = MAP3K9 (human) (UniProt P80192)
MAP4K1 (human) = MAP4K1 (human) (UniProt Q92918)
MAPK14 (human) = MAPK14 (human) (UniProt Q16539)
WEE1 (human) = WEE1 (human) (UniProt P30291)
EPHA3 (human) = EPHA3 (human) (UniProt P29320)
MYO3A (human) = MYO3A (human) (UniProt Q8NEV4)
CDC42BPB (human) = CDC42BPB (human) (UniProt Q9Y5S2)
CDC42BPB (human), sequence (Q9Y5S2 whole entry, looked up): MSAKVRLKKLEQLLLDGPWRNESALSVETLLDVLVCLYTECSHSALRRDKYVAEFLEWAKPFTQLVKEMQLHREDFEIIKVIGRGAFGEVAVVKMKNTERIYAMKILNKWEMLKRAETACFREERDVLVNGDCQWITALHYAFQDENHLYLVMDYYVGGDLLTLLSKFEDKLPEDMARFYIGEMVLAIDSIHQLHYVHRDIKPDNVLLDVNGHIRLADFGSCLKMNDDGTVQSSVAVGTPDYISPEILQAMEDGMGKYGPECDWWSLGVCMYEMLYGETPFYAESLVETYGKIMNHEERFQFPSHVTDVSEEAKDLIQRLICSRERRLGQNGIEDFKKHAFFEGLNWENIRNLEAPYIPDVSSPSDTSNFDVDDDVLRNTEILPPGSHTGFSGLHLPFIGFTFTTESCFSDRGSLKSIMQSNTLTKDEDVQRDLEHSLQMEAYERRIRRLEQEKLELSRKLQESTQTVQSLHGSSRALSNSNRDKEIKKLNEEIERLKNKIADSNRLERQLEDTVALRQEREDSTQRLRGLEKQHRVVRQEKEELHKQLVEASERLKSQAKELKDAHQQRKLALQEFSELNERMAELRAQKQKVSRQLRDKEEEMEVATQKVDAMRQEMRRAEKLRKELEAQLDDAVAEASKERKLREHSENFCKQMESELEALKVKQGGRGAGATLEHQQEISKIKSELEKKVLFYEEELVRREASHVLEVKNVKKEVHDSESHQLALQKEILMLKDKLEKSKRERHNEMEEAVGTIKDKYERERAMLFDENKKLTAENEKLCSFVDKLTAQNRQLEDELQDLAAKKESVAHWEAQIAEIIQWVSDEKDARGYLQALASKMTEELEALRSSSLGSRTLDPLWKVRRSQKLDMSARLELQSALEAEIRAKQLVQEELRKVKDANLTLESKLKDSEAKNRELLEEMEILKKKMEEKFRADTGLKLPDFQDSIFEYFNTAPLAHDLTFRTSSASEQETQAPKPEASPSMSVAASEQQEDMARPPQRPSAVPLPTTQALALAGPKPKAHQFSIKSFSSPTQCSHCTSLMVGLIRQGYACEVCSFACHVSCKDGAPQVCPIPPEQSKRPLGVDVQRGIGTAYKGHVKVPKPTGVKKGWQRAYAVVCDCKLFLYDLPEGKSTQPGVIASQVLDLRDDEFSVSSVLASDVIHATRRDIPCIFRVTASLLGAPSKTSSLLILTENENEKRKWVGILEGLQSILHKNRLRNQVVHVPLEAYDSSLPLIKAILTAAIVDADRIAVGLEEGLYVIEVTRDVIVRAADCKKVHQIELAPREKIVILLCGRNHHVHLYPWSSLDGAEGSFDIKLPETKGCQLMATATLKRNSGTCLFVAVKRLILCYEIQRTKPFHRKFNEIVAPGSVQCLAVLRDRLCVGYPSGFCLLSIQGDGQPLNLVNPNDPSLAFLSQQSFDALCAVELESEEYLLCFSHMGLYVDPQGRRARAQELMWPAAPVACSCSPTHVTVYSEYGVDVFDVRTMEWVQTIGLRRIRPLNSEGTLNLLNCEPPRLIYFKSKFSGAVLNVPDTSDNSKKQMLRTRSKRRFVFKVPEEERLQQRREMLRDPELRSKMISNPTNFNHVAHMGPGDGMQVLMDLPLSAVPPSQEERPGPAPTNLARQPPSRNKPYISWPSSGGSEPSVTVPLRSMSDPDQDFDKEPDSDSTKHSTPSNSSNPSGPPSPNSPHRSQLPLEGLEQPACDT

INSR (human) = INSR (human) (UniProt P06213)
MLTK (human) = MLTK (human) (UniProt Q9NYL2)
CDC42BPA (human) = CDC42BPA (human) (UniProt Q5VT25)
[1] = tested on: RET (human), P07949 [M918T]
ROCK1 (human) = ROCK1 (human) (UniProt Q13464)
GRK1 (human) = GRK1 (human) (UniProt Q15835)
MATK (human) = MATK (human) (UniProt P42679)
MAP3K6 (human) = MAP3K6 (human) (UniProt O95382)
GRK4 (human) = GRK4 (human) (UniProt P32298)
MAP3K13 (human) = MAP3K13 (human) (UniProt O43283)

IRAK3 (human), sequence (Q9Y616 whole entry, looked up): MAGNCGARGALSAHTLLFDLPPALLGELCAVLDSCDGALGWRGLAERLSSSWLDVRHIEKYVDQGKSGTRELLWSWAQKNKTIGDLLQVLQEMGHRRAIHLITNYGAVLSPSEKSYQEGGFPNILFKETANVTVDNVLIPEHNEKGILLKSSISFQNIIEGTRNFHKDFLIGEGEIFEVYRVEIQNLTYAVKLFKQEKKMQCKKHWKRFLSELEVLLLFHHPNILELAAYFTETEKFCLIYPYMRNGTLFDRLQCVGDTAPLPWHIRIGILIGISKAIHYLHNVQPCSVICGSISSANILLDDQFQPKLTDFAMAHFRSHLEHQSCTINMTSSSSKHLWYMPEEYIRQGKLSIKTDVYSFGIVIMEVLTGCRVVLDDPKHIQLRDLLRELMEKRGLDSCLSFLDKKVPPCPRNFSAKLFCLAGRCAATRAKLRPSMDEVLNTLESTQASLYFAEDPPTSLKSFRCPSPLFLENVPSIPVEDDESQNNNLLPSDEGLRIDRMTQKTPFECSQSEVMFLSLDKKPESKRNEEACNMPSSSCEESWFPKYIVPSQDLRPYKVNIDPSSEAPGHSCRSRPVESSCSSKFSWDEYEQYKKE
CLK1 (human), sequence (P49759 whole entry, looked up): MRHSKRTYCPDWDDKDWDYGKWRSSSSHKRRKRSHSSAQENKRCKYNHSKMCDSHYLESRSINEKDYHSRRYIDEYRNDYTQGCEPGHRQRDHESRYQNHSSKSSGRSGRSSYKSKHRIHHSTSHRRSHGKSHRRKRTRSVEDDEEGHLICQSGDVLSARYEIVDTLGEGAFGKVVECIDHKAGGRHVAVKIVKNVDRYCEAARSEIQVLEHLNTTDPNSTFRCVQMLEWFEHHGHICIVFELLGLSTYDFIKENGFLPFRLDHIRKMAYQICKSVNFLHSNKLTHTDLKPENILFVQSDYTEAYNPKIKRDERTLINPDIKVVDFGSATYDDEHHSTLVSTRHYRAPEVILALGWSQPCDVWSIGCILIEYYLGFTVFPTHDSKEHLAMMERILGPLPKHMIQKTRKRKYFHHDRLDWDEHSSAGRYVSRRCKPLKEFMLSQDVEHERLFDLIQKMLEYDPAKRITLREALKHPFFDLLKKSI
TSSK1B (human), sequence (Q9BXA7 whole entry, looked up): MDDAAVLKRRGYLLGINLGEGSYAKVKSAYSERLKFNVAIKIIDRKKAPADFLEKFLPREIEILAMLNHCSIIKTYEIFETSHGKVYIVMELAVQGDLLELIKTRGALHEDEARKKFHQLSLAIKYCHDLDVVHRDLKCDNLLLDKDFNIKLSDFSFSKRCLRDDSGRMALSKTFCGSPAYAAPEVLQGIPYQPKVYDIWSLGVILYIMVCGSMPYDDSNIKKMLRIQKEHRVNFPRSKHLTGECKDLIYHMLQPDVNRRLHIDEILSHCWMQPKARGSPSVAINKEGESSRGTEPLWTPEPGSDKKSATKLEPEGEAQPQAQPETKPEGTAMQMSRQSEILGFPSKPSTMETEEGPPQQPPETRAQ

SMILES	kinase still bound, per cent of control (CSNK1E (human)) [%]	kinase still bound, per cent of control (IRAK3 (human)) [%]	kinase still bound, per cent of control (PKN1 (human)) [%]	kinase still bound, per cent of control (FGR (human)) [%]	kinase still bound, per cent of control (TSSK1B (human)) [%]	kinase still bound, per cent of control (PTK2 (human)) [%]	kinase still bound, per cent of control (CAMK2A (human)) [%]	kinase still bound, per cent of control (MAPK6 (human)) [%]	kinase still bound, per cent of control (MKNK2 (human)) [%]	kinase still bound, per cent of control (BRSK2 (human)) [%]	kinase still bound, per cent of control (RPS6KA1 KD1 (human)) [%]	kinase still bound, per cent of control (CAMKK1 (human)) [%]	kinase still bound, per cent of control (CSNK1G1 (human)) [%]	kinase still bound, per cent of control (FGFR3 (human)) [%]	kinase still bound, per cent of control (MKNK1 (human)) [%]	kinase still bound, per cent of control (MAP3K9 (human)) [%]	kinase still bound, per cent of control (MAP4K1 (human)) [%]	kinase still bound, per cent of control (MAPK14 (human)) [%]	kinase still bound, per cent of control (WEE1 (human)) [%]	kinase still bound, per cent of control (EPHA3 (human)) [%]	other results
Cc1n[nH]c2ccc(-c3cncc(OC[C@@H](N)Cc4c[nH]c5ccccc45)c3)cc12	0.05	30	0	100	100	100	0.7	100	13	100	100	2.4	3.7	100	19	100	23	100	100	100	kinase still bound, per cent of control (CLK1 (human)): 0%; kinase still bound, per cent of control (TAOK3 (human)): 0.1%; kinase still bound, per cent of control (CLK3 (human)): 0%; kinase still bound, per cent of control (MYO3A (human)): 100%; kinase still bound, per cent of control (CDC42BPB (human)): 1%; kinase still bound, per cent of control (INSR (human)): 100%; kinase still bound, per cent of control (MLTK (human)): 100%; kinase still bound, per cent of control (CDC42BPA (human)): 6.6%; kinase still bound, per cent of control [1]: 100%
CCN(CC)CCCCNc1ncc2cc(-c3cc(OC)cc(OC)c3)c(NC(=O)NC(C)(C)C)nc2n1	100	100	100	100	100	100	100	100	100	100	100	100	100	0.05	100	100	100	100	100	100	kinase still bound, per cent of control (CLK1 (human)): 100%; kinase still bound, per cent of control (CLK3 (human)): 100%; kinase still bound, per cent of control (MYO3A (human)): 100%; kinase still bound, per cent of control (CDC42BPB (human)): 100%; kinase still bound, per cent of control (MLTK (human)): 100%; kinase still bound, per cent of control (CDC42BPA (human)): 100%; kinase still bound, per cent of control [1]: 100%

Continued, in another order:

kinase still bound, per cent of control (CSNK1E (human)) [%]	kinase still bound, per cent of control (IRAK3 (human)) [%]	kinase still bound, per cent of control (PKN1 (human)) [%]	kinase still bound, per cent of control (FGR (human)) [%]	kinase still bound, per cent of control (TSSK1B (human)) [%]	kinase still bound, per cent of control (PTK2 (human)) [%]	kinase still bound, per cent of control (CAMK2A (human)) [%]	kinase still bound, per cent of control (MAPK6 (human)) [%]	kinase still bound, per cent of control (MKNK2 (human)) [%]	kinase still bound, per cent of control (BRSK2 (human)) [%]	kinase still bound, per cent of control (RPS6KA1 KD1 (human)) [%]	kinase still bound, per cent of control (CAMKK1 (human)) [%]	kinase still bound, per cent of control (CSNK1G1 (human)) [%]	kinase still bound, per cent of control (FGFR3 (human)) [%]	kinase still bound, per cent of control (MKNK1 (human)) [%]	kinase still bound, per cent of control (MAP3K9 (human)) [%]	kinase still bound, per cent of control (MAP4K1 (human)) [%]	kinase still bound, per cent of control (MAPK14 (human)) [%]	kinase still bound, per cent of control (WEE1 (human)) [%]	kinase still bound, per cent of control (EPHA3 (human)) [%]	SMILES	other results
29	15	0	5	100	0	100	100	100	100	0.8	100	16	18	100	0.85	7.9	100	100	100	CNC(=O)c1ccc(Nc2cc(Nc3ccccc3S(=O)(=O)C(C)C)c3cc[nH]c3n2)nc1	kinase still bound, per cent of control (CLK1 (human)): 0.15%; kinase still bound, per cent of control (TAOK3 (human)): 2%; kinase still bound, per cent of control (CLK3 (human)): 2.8%; kinase still bound, per cent of control (MYO3A (human)): 100%; kinase still bound, per cent of control (CDC42BPB (human)): 100%; kinase still bound, per cent of control (INSR (human)): 0.4%; kinase still bound, per cent of control (MLTK (human)): 100%; kinase still bound, per cent of control (CDC42BPA (human)): 100%; kinase still bound, per cent of control [1]: 1.4%
100	100	100	100	100	100	100	100	100	100	100	100	100	100	100	100	100	100	100	100	CS(=O)(=O)N1CCN(Cc2cc3nc(-c4cccc5[nH]ncc45)nc(N4CCOCC4)c3s2)CC1	kinase still bound, per cent of control (ROCK1 (human)): 100%; kinase still bound, per cent of control (TAOK3 (human)): 100%; kinase still bound, per cent of control (GRK1 (human)): 100%; kinase still bound, per cent of control (MATK (human)): 100%; kinase still bound, per cent of control (MAP3K6 (human)): 100%; kinase still bound, per cent of control (MYO3A (human)): 100%; kinase still bound, per cent of control (CDC42BPB (human)): 100%; kinase still bound, per cent of control (INSR (human)): 100%; kinase still bound, per cent of control (GRK4 (human)): 100%; kinase still bound, per cent of control (MLTK (human)): 100%; kinase still bound, per cent of control (CDC42BPA (human)): 100%; kinase still bound, per cent of control (MAP3K13 (human)): 100%; kinase still bound, per cent of control [1]: 100%
100	100	100	7	100	100	100	100	100	100	100	100	100	4.5	100	12	16	100	100	100	C=CC(=O)Nc1ccc(CN(C(=O)Nc2c(Cl)c(OC)cc(OC)c2Cl)c2cc(Nc3ccc(N4CCN(C)CC4)cc3)ncn2)cc1	kinase still bound, per cent of control (CLK1 (human)): 100%; kinase still bound, per cent of control (TAOK3 (human)): 0.9%; kinase still bound, per cent of control (CLK3 (human)): 100%; kinase still bound, per cent of control (MYO3A (human)): 100%; kinase still bound, per cent of control (CDC42BPB (human)): 100%; kinase still bound, per cent of control (INSR (human)): 24%; kinase still bound, per cent of control (MLTK (human)): 100%; kinase still bound, per cent of control (CDC42BPA (human)): 100%; kinase still bound, per cent of control [1]: 0.4%
